ChEMBL document CHEMBL5236661, “A new selective inhibitor for IMP-1 metallo-β-lactamase, 3Z,5E-octa-3,5-diene-1,3,4-tricarboxylic acid-3,4-anhydride” (Bioorg Med Chem, 2023)
Values after ≈ are worked out from the molar mass of the structure shown. Active and inactive are the calls of the source. No cut-off for these calls is given here.

Experiments:
[1] = Inhibition of bacterial Metallo-beta-lactamase IMP-1 using nitrocefin as substrate pre-incubated for 15 mins followed by substrate addition by microplate reader; design: species or system Bacteria
Escherichia coli [2] = experiment: Antibacterial activity against Escherichia coli KB366 expressing IMP-1 assessed as inhibition of bacterial growth at 100 ug in presence of meropenem incubated overnight by paper disk method; type: functional; settings: read-out: IZ
Escherichia coli [3] = experiment: Antibacterial activity against Escherichia coli KB366 expressing IMP-1 assessed as inhibition of bacterial growth at 30 ug in presence of meropenem incubated overnight by paper disk method; type: functional; settings: read-out: IZ
Escherichia coli [4] = experiment: Antibacterial activity against Escherichia coli KB366 expressing IMP-1 assessed as inhibition of bacterial growth at 10 ug in presence of meropenem incubated overnight by paper disk method; type: functional; settings: read-out: IZ
Escherichia coli [5] = experiment: Antibacterial activity against Escherichia coli KB366 expressing IMP-1 assessed as inhibition of bacterial growth at 3 ug in presence of meropenem incubated overnight by paper disk method; type: functional; settings: read-out: IZ
Escherichia coli [6] = experiment: Antibacterial activity against Escherichia coli KB366 expressing IMP-1 assessed as inhibition of bacterial growth at 1 ug in presence of meropenem incubated overnight by paper disk method; type: functional; settings: read-out: IZ
Escherichia coli [7] = experiment: Antibacterial activity against Escherichia coli KB366 expressing IMP-1 assessed as inhibition of bacterial growth at 0.3 ug in presence of meropenem incubated overnight by paper disk method; type: functional; settings: read-out: IZ
Escherichia coli [8] = experiment: Antibacterial activity against Escherichia coli KB366 expressing IMP-1 assessed as inhibition of bacterial growth at 0.1 ug in presence of meropenem incubated overnight by paper disk method; type: functional; settings: read-out: IZ
Escherichia coli [9] = experiment: Antibacterial activity against Escherichia coli KB366 expressing IMP-1 assessed as inhibition of bacterial growth at 0.03 ug in presence of meropenem incubated overnight by paper disk method; type: functional; settings: read-out: IZ
Escherichia coli [10] = experiment: Antibacterial activity against Escherichia coli KB366 expressing IMP-1 assessed as inhibition of bacterial growth at 0.01 ug in presence of meropenem incubated overnight by paper disk method; type: functional; settings: dose 0.01 µg
Escherichia coli [11] = experiment: Antibacterial activity against Escherichia coli KB366 expressing IMP-1 assessed as inhibition of bacterial growth at 100 ug in absence of meropenem incubated overnight by paper disk method; type: functional, organism-based; settings: dose 100.0 µg
Escherichia coli [12] = experiment: Antibacterial activity against Escherichia coli KB366 expressing IMP-1 assessed as inhibition of bacterial growth at 30 ug in absence of meropenem incubated overnight by paper disk method; type: functional, organism-based; settings: dose 30.0 µg
Escherichia coli [13] = experiment: Antibacterial activity against Escherichia coli KB366 expressing IMP-1 assessed as inhibition of bacterial growth at 10 ug in absence of meropenem incubated overnight by paper disk method; type: functional, organism-based; settings: dose 10.0 µg
Escherichia coli [14] = experiment: Antibacterial activity against Escherichia coli KB366 expressing IMP-1 assessed as inhibition of bacterial growth at 3 ug in absence of meropenem incubated overnight by paper disk method; type: functional, organism-based; settings: dose 3.0 µg
Escherichia coli [15] = experiment: Antibacterial activity against Escherichia coli KB366 expressing IMP-1 assessed as inhibition of bacterial growth at 1 ug in absence of meropenem incubated overnight by paper disk method; type: functional, organism-based; settings: dose 1.0 µg
Escherichia coli [16] = experiment: Antibacterial activity against Escherichia coli KB366 expressing IMP-1 assessed as inhibition of bacterial growth at 0.3 ug in absence of meropenem incubated overnight by paper disk method; type: functional, organism-based; settings: dose 0.3 µg
Escherichia coli [17] = experiment: Antibacterial activity against Escherichia coli KB366 expressing IMP-1 assessed as inhibition of bacterial growth at 0.1 ug in absence of meropenem incubated overnight by paper disk method; type: functional, organism-based; settings: dose 0.1 µg
Escherichia coli [18] = experiment: Antibacterial activity against Escherichia coli KB366 expressing IMP-1 assessed as inhibition of bacterial growth at 0.03 ug in absence of meropenem incubated overnight by paper disk method; type: functional, organism-based; settings: dose 0.03 µg
Escherichia coli [19] = experiment: Antibacterial activity against Escherichia coli KB366 expressing IMP-1 assessed as inhibition of bacterial growth at 0.01 ug in absence of meropenem incubated overnight by paper disk method; type: functional, organism-based; settings: dose 0.01 µg
Pseudomonas aeruginosa [20] = experiment: Antibacterial activity against Pseudomonas aeruginosa KB367 expressing IMP-1 assessed as inhibition of bacterial growth at 100 ug in presence of meropenem incubated overnight by paper disk method; type: functional; settings: read-out: IZ
Pseudomonas aeruginosa [21] = experiment: Antibacterial activity against Pseudomonas aeruginosa KB367 expressing IMP-1 assessed as inhibition of bacterial growth at 30 ug in presence of meropenem incubated overnight by paper disk method; type: functional; settings: read-out: IZ
Pseudomonas aeruginosa [22] = experiment: Antibacterial activity against Pseudomonas aeruginosa KB367 expressing IMP-1 assessed as inhibition of bacterial growth at 10 ug in presence of meropenem incubated overnight by paper disk method; type: functional; settings: read-out: IZ
Pseudomonas aeruginosa [23] = experiment: Antibacterial activity against Pseudomonas aeruginosa KB367 expressing IMP-1 assessed as inhibition of bacterial growth at 3 ug in presence of meropenem incubated overnight by paper disk method; type: functional; settings: read-out: IZ
Pseudomonas aeruginosa [24] = experiment: Antibacterial activity against Pseudomonas aeruginosa KB367 expressing IMP-1 assessed as inhibition of bacterial growth at 1 ug in presence of meropenem incubated overnight by paper disk method; type: functional; settings: read-out: IZ
Pseudomonas aeruginosa [25] = experiment: Antibacterial activity against Pseudomonas aeruginosa KB367 expressing IMP-1 assessed as inhibition of bacterial growth at 0.3 ug in presence of meropenem incubated overnight by paper disk method; type: functional, organism-based; settings: dose 0.3 µg
Pseudomonas aeruginosa [26] = experiment: Antibacterial activity against Pseudomonas aeruginosa KB367 expressing IMP-1 assessed as inhibition of bacterial growth at 0.1 ug in presence of meropenem incubated overnight by paper disk method; type: functional, organism-based; settings: dose 0.1 µg
Pseudomonas aeruginosa [27] = experiment: Antibacterial activity against Pseudomonas aeruginosa KB367 expressing IMP-1 assessed as inhibition of bacterial growth at 0.03 ug in presence of meropenem incubated overnight by paper disk method; type: functional, organism-based; settings: dose 0.03 µg
Pseudomonas aeruginosa [28] = experiment: Antibacterial activity against Pseudomonas aeruginosa KB367 expressing IMP-1 assessed as inhibition of bacterial growth at 0.01 ug in presence of meropenem incubated overnight by paper disk method; type: functional, organism-based; settings: dose 0.01 µg
Pseudomonas aeruginosa [29] = experiment: Antibacterial activity against Pseudomonas aeruginosa KB367 expressing IMP-1 assessed as inhibition of bacterial growth at 100 ug in absence of meropenem incubated overnight by paper disk method; type: functional, organism-based; settings: dose 100.0 µg
Pseudomonas aeruginosa [30] = experiment: Antibacterial activity against Pseudomonas aeruginosa KB367 expressing IMP-1 assessed as inhibition of bacterial growth at 30 ug in absence of meropenem incubated overnight by paper disk method; type: functional, organism-based; settings: dose 30.0 µg
Pseudomonas aeruginosa [31] = experiment: Antibacterial activity against Pseudomonas aeruginosa KB367 expressing IMP-1 assessed as inhibition of bacterial growth at 10 ug in absence of meropenem incubated overnight by paper disk method; type: functional, organism-based; settings: dose 10.0 µg
Pseudomonas aeruginosa [32] = experiment: Antibacterial activity against Pseudomonas aeruginosa KB367 expressing IMP-1 assessed as inhibition of bacterial growth at 3 ug in absence of meropenem incubated overnight by paper disk method; type: functional, organism-based; settings: dose 3.0 µg
Pseudomonas aeruginosa [33] = experiment: Antibacterial activity against Pseudomonas aeruginosa KB367 expressing IMP-1 assessed as inhibition of bacterial growth at 1 ug in absence of meropenem incubated overnight by paper disk method; type: functional, organism-based; settings: dose 1.0 µg
Pseudomonas aeruginosa [34] = experiment: Antibacterial activity against Pseudomonas aeruginosa KB367 expressing IMP-1 assessed as inhibition of bacterial growth at 0.3 ug in absence of meropenem incubated overnight by paper disk method; type: functional, organism-based; settings: dose 0.3 µg
Pseudomonas aeruginosa [35] = experiment: Antibacterial activity against Pseudomonas aeruginosa KB367 expressing IMP-1 assessed as inhibition of bacterial growth at 0.1 ug in absence of meropenem incubated overnight by paper disk method; type: functional, organism-based; settings: dose 0.1 µg
Pseudomonas aeruginosa [36] = experiment: Antibacterial activity against Pseudomonas aeruginosa KB367 expressing IMP-1 assessed as inhibition of bacterial growth at 0.03 ug in absence of meropenem incubated overnight by paper disk method; type: functional, organism-based; settings: dose 0.03 µg
Pseudomonas aeruginosa [37] = experiment: Antibacterial activity against Pseudomonas aeruginosa KB367 expressing IMP-1 assessed as inhibition of bacterial growth at 0.01 ug in absence of meropenem incubated overnight by paper disk method; type: functional, organism-based; settings: dose 0.01 µg

Compound: CCCCC(C(=O)N1CCCCC1)=C(C(=O)O)c1ccc(O)c(O)c1
- IC50 [1]: 0.55 µg/mL (≈ 1.58 µM)
- zone of inhibition at 100 µg/disc (Escherichia coli [2]): 24 mm
- zone of inhibition at 30 µg/disc (Escherichia coli [3]): 23 mm
- zone of inhibition at 10 µg/disc (Escherichia coli [4]): 21 mm
- zone of inhibition at 3 µg/disc (Escherichia coli [5]): 20 mm
- zone of inhibition at 1 µg/disc (Escherichia coli [6]): 17 mm
- zone of inhibition at 0.3 µg/disc (Escherichia coli [7]): 15 mm
- zone of inhibition at 0.1 µg/disc (Escherichia coli [8]): 12 mm
- zone of inhibition at 0.03 µg/disc (Escherichia coli [9]): 10 mm
- inhibition zone (IZ) (Escherichia coli [10]): inactive
- inhibition zone (IZ) (Escherichia coli [11]): inactive
- inhibition zone (IZ) (Escherichia coli [12]): inactive
- inhibition zone (IZ) (Escherichia coli [13]): inactive
- inhibition zone (IZ) (Escherichia coli [14]): inactive
- inhibition zone (IZ) (Escherichia coli [15]): inactive
- inhibition zone (IZ) (Escherichia coli [16]): inactive
- inhibition zone (IZ) (Escherichia coli [17]): inactive
- inhibition zone (IZ) (Escherichia coli [18]): inactive
- inhibition zone (IZ) (Escherichia coli [19]): inactive
- zone of inhibition at 100 µg/disc (Pseudomonas aeruginosa [20]): 16 mm
- zone of inhibition at 30 µg/disc (Pseudomonas aeruginosa [21]): 13 mm
- zone of inhibition at 10 µg/disc (Pseudomonas aeruginosa [22]): 12 mm
- zone of inhibition at 3 µg/disc (Pseudomonas aeruginosa [23]): 12 mm
- zone of inhibition at 1 µg/disc (Pseudomonas aeruginosa [24]): 9 mm
- inhibition zone (IZ) (Pseudomonas aeruginosa [25]): inactive
- inhibition zone (IZ) (Pseudomonas aeruginosa [26]): inactive
- inhibition zone (IZ) (Pseudomonas aeruginosa [27]): inactive
- inhibition zone (IZ) (Pseudomonas aeruginosa [28]): inactive
- inhibition zone (IZ) (Pseudomonas aeruginosa [29]): inactive
- inhibition zone (IZ) (Pseudomonas aeruginosa [30]): inactive
- inhibition zone (IZ) (Pseudomonas aeruginosa [31]): inactive
- inhibition zone (IZ) (Pseudomonas aeruginosa [32]): inactive
- inhibition zone (IZ) (Pseudomonas aeruginosa [33]): inactive
- inhibition zone (IZ) (Pseudomonas aeruginosa [34]): inactive
- inhibition zone (IZ) (Pseudomonas aeruginosa [35]): inactive
- inhibition zone (IZ) (Pseudomonas aeruginosa [36]): inactive
- inhibition zone (IZ) (Pseudomonas aeruginosa [37]): inactive
